The test system of the test is MV-4-11 cells. The test is described as follows: Gene expression microarray analysis (Affymetrix PrimeView) and GSEA. It counts as cell-based, human. To be noted: ProbeSet 11725141_a_at; LIST B. Also on record: RFU PODN (11730768_x_at) / Fold change /veh PODN (11730768_x_at) / RFU LINC00158 (11744669_a_at) / Fold change /veh LINC00158 (11744669_a_at) / RFU DUSP10 (11751237_a_at) / Fold change /veh DUSP10 (11751237_a_at) / RFU ID3 (11757404_x_at) / Fold change /veh ID3 (11757404_x_at) / RFU PLEKHG5 (11737974_s_at) / Fold change /veh PLEKHG5 (11737974_s_at) / RFU LRRC4B (11730491_at) / Fold change /veh LRRC4B (11730491_at) / RFU GIMAP4 (11747438_a_at) / Fold change /veh GIMAP4 (11747438_a_at) / RFU KRT8 (11758183_x_at) / Fold change /veh KRT8 (11758183_x_at) / RFU CNN1 (11734310_a_at) / Fold change /veh CNN1 (11734310_a_at) / RFU VPS37D (11726825_at) / Fold change /veh VPS37D (11726825_at) / RFU C10orf10 (11716522_x_at) / Fold change /veh C10orf10 (11716522_x_at) / RFU KIR2DL2 /// KIR2DL4 /// KIR2DL5A /// KIR2DL5B /// KIR2DS1 /// KIR2DS2 /// KIR2DS3 /// KIR2DS4 /// KIR3DL3 /// KIR3DL3 /// KIR3DS1 (11738374_at) / Fold change /veh KIR2DL2 /// KIR2DL4 /// KIR2DL5A /// KIR2DL5B /// KIR2DS1 /// KIR2DS2 /// KIR2DS3 /// KIR2DS4 /// KIR3DL3 /// KIR3DL3 /// KIR3DS1 (11738374_at) / RFU C1QL1 (11718748_at) / Fold change /veh C1QL1 (11718748_at) / RFU TMPRSS4 (11747572_a_at) / Fold change /veh TMPRSS4 (11747572_a_at) / RFU HAMP (11756126_x_at) / Fold change /veh HAMP (11756126_x_at) / RFU RNFT2 (11725882_a_at) / Fold change /veh RNFT2 (11725882_a_at) / RFU NR4A2 (11747474_a_at) / Fold change /veh NR4A2 (11747474_a_at) / RFU ABCC12 (11746883_a_at) / Fold change /veh ABCC12 (11746883_a_at) / RFU TMEM136 (11760407_x_at) / Fold change /veh TMEM136 (11760407_x_at) / RFU CLDN22 /// WWC2 (11732394_at) / Fold change /veh CLDN22 /// WWC2 (11732394_at) / RFU HLA-DPB1 (11760878_x_at) / Fold change /veh HLA-DPB1 (11760878_x_at) / RFU SPINT1 (11716480_a_at) / Fold change /veh SPINT1 (11716480_a_at) / RFU GAP43 (11754022_s_at) / Fold change /veh GAP43 (11754022_s_at) / RFU A4GNT (11735810_at) / Fold change /veh A4GNT (11735810_at) / RFU PRB3 (11715151_x_at) / Fold change /veh PRB3 (11715151_x_at) / RFU TUBB4B (11761932_at) / Fold change /veh TUBB4B (11761932_at) / RFU CAPN14 (11732068_a_at) / Fold change /veh CAPN14 (11732068_a_at) / RFU TMCC2 (11721928_a_at) / Fold change /veh TMCC2 (11721928_a_at) / RFU IRGQ (11745062_a_at) / Fold change /veh IRGQ (11745062_a_at) / RFU FAM174B (11720279_a_at) / Fold change /veh FAM174B (11720279_a_at) / RFU TMPRSS4 (11748680_a_at) / Fold change /veh TMPRSS4 (11748680_a_at) / RFU FAM212B (11763350_a_at) / Fold change /veh FAM212B (11763350_a_at) / RFU PLEKHG5 (11743358_a_at) / Fold change /veh PLEKHG5 (11743358_a_at) / RFU ZSCAN30 (11745921_a_at) / Fold change /veh ZSCAN30 (11745921_a_at) / RFU CMKLR1 (11741424_a_at) / Fold change /veh CMKLR1 (11741424_a_at) / RFU LOC101060620 /// MAPK8IP1 (11723275_at) / Fold change /veh LOC101060620 /// MAPK8IP1 (11723275_at) / RFU SPTSSB (11747773_x_at) / Fold change /veh SPTSSB (11747773_x_at) / RFU PRSS12 (11739890_at) / Fold change /veh PRSS12 (11739890_at) / RFU BIN1 (11741810_x_at) / Fold change /veh BIN1 (11741810_x_at) / RFU WNT11 (11732464_a_at) / Fold change /veh WNT11 (11732464_a_at) / RFU C10orf10 (11716521_a_at) / Fold change /veh C10orf10 (11716521_a_at) / RFU C5orf56 (11738089_at) / Fold change /veh C5orf56 (11738089_at) / RFU CYB561 (11721691_x_at) / Fold change /veh CYB561 (11721691_x_at) / RFU ANKRD19P (11752326_a_at) / Fold change /veh ANKRD19P (11752326_a_at) / RFU OR2T12 /// OR2T33 /// OR2T8 (11738714_s_at) / Fold change /veh OR2T12 /// OR2T33 /// OR2T8 (11738714_s_at) / RFU VCAN (11748164_a_at) / Fold change /veh VCAN (11748164_a_at) / RFU JSRP1 (11732532_at) / Fold change /veh JSRP1 (11732532_at) / RFU KRTAP10-11 (11738290_x_at) / Fold change /veh KRTAP10-11 (11738290_x_at) / RFU MYO3A (11730013_a_at) / Fold change /veh MYO3A (11730013_a_at) / RFU EBF3 (11725865_a_at) / Fold change /veh EBF3 (11725865_a_at) / RFU CAMK2N1 (11719241_x_at) / Fold change /veh CAMK2N1 (11719241_x_at) / RFU C5orf56 (11738088_a_at) / Fold change /veh C5orf56 (11738088_a_at) / RFU OLFML3 (11715873_a_at) / Fold change /veh OLFML3 (11715873_a_at) / RFU LOC100653217 /// NTM (11731650_a_at) / Fold change /veh LOC100653217 /// NTM (11731650_a_at) / RFU MAPK11 (11762145_a_at) / Fold change /veh MAPK11 (11762145_a_at) / RFU FIZ1 (11724087_x_at) / Fold change /veh FIZ1 (11724087_x_at) / RFU OASL (11726364_x_at) / Fold change /veh OASL (11726364_x_at) / RFU SOX15 (11748057_x_at) / Fold change /veh SOX15 (11748057_x_at) / RFU CD79A (11719716_a_at) / Fold change /veh CD79A (11719716_a_at) / RFU HIST1H1D (11736915_at) / Fold change /veh HIST1H1D (11736915_at) / RFU CASKIN2 (11723855_a_at) / Fold change /veh CASKIN2 (11723855_a_at) / RFU LOC730098 (11760151_x_at) / Fold change /veh LOC730098 (11760151_x_at) / RFU OR4N2 (11742367_at) / Fold change /veh OR4N2 (11742367_at) / RFU PRRT2 (11749266_a_at) / Fold change /veh PRRT2 (11749266_a_at) / RFU SNX32 (11753110_a_at) / Fold change /veh SNX32 (11753110_a_at) / RFU CDHR5 (11726645_a_at) / Fold change /veh CDHR5 (11726645_a_at) / RFU RCAN1 (11760418_a_at) / Fold change /veh RCAN1 (11760418_a_at) / RFU FAM167A (11723789_a_at) / Fold change /veh FAM167A (11723789_a_at) / RFU FAM26E (11764081_at) / Fold change /veh FAM26E (11764081_at) / RFU ISYNA1 (11749810_s_at) / Fold change /veh ISYNA1 (11749810_s_at) / RFU ACY1 (11761880_at) / Fold change /veh ACY1 (11761880_at) / RFU 11764098_at / Fold change /veh 11764098_at / RFU SAMD14 (11745864_x_at) / Fold change /veh SAMD14 (11745864_x_at) / RFU NPB (11741838_a_at) / Fold change /veh NPB (11741838_a_at) / RFU TMPRSS6 (11731388_a_at) / Fold change /veh TMPRSS6 (11731388_a_at) / RFU KRTAP10-2 (11738614_at) / Fold change /veh KRTAP10-2 (11738614_at) / RFU ARHGAP8 /// PRR5-ARHGAP8 (11727945_x_at) / Fold change /veh ARHGAP8 /// PRR5-ARHGAP8 (11727945_x_at) / RFU KRTAP5-7 /// NADSYN1 (11734609_at) / Fold change /veh KRTAP5-7 /// NADSYN1 (11734609_at) / RFU RASL12 (11751679_a_at) / Fold change /veh RASL12 (11751679_a_at) / RFU CDKN2B (11736163_a_at) / Fold change /veh CDKN2B (11736163_a_at) / RFU PRF1 (11729649_at) / Fold change /veh PRF1 (11729649_at) / RFU, ZNF638 /// ZNF638-IT1 / Fold change vs veh, ZNF638 /// ZNF638-IT1 / RFU, PANK3 / Fold change vs veh, PANK3 / RFU, SH3YL1 / Fold change vs veh, SH3YL1 / RFU, ZEB2 / Fold change vs veh, ZEB2 / RFU, NRIP1 / Fold change vs veh, NRIP1 / RFU, PTTG1IP / Fold change vs veh, PTTG1IP / RFU, CAPN2 / Fold change vs veh, CAPN2 / RFU, MED14 / Fold change vs veh, MED14 / RFU, SNORA58 / Fold change vs veh, SNORA58 / RFU, C1orf63 / Fold change vs veh, C1orf63 / RFU, LRRFIP1 / Fold change vs veh, LRRFIP1 / RFU, NDUFAF7 / Fold change vs veh, NDUFAF7 / RFU, SLC12A2 / Fold change vs veh, SLC12A2 / RFU, IBTK / Fold change vs veh, IBTK / RFU, ESF1 / Fold change vs veh, ESF1 / Fold change vs veh, TMEM50B / RFU, TAOK1 / Fold change vs veh, TAOK1 / RFU, ACBD3 / Fold change vs veh, ACBD3 / RFU, TMA16 / Fold change vs veh, TMA16 / RFU, RWDD3 / Fold change vs veh, RWDD3 / RFU, BCAT1 / Fold change vs veh, BCAT1 / RFU, EDEM3 / Fold change vs veh, EDEM3 / RFU, TMEM33 / Fold change vs veh, TMEM33 / RFU, WDR75 / Fold change vs veh, WDR75 / RFU, AHCTF1 / Fold change vs veh, AHCTF1 / RFU, TFRC / Fold change vs veh, TFRC / RFU, ZDHHC17 / Fold change vs veh, ZDHHC17 / RFU, NOM1 / Fold change vs veh, NOM1 / RFU, ARL8B / Fold change vs veh, ARL8B / RFU, ZBTB11 / Fold change vs veh, ZBTB11 / RFU, TAMM41 / Fold change vs veh, TAMM41 / RFU, KIAA1704 /// LOC100996395 / Fold change vs veh, KIAA1704 /// LOC100996395 / RFU, ING1 / Fold change vs veh, ING1 / RFU, TRMT61B / Fold change vs veh, TRMT61B / RFU, FUBP3 / Fold change vs veh, FUBP3 / RFU, TP53 / Fold change vs veh, TP53 / RFU, TNKS2 / Fold change vs veh, TNKS2 / RFU, ZFP14 / Fold change vs veh, ZFP14 / RFU, ACTR2 / Fold change vs veh, ACTR2 / RFU, PPP3R1 / Fold change vs veh, PPP3R1 / RFU, PIK3R1 / Fold change vs veh, PIK3R1 / RFU, HNRNPA1 / Fold change vs veh, HNRNPA1 / RFU, RNF170 / Fold change vs veh, RNF170 / RFU, ZNF28 / Fold change vs veh, ZNF28 / RFU, RNGTT / Fold change vs veh, RNGTT / RFU, OGT / Fold change vs veh, OGT / RFU, BRD1 / Fold change vs veh, BRD1 / RFU, MARS / Fold change vs veh, MARS / RFU, ZNF655 / Fold change vs veh, ZNF655 / RFU, FAHD1 / Fold change vs veh, FAHD1 / RFU, BDP1 / Fold change vs veh, BDP1 / RFU, LRRCC1 / Fold change vs veh, LRRCC1 / RFU, ARID1A / Fold change vs veh, ARID1A / RFU, ZNF146 / Fold change vs veh, ZNF146 / RFU, ZNF330 / Fold change vs veh, ZNF330 / RFU, GPN3 / Fold change vs veh, GPN3 / RFU, C9orf123 / Fold change vs veh, C9orf123 / RFU, N4BP2L2 / Fold change vs veh, N4BP2L2 / RFU, ARFIP1 / Fold change vs veh, ARFIP1 / RFU, FAM179B / Fold change vs veh, FAM179B / RFU, BCL10 / Fold change vs veh, BCL10 / RFU, UHRF1BP1L / Fold change vs veh, UHRF1BP1L / RFU, BET1 / Fold change vs veh, BET1 / RFU, CNOT2 / Fold change vs veh, CNOT2 / RFU, ZNF268 / Fold change vs veh, ZNF268 / Fold change vs veh, ZNF507 / RFU, DGCR2 / Fold change vs veh, DGCR2 / RFU, WDSUB1 / Fold change vs veh, WDSUB1 / Fold change vs veh, HSP90B1 /// MIR3652 / RFU, ADSS / Fold change vs veh, ADSS / RFU, GK / Fold change vs veh, GK / RFU, ZNF148 / Fold change vs veh, ZNF148 / RFU, TAF9 / Fold change vs veh, TAF9 / RFU, SLC1A5 / Fold change vs veh, SLC1A5 / RFU, SLMO2 / Fold change vs veh, SLMO2 / RFU, ABCC4 / Fold change vs veh, ABCC4 / RFU, LOC101060439 /// RAP1B / Fold change vs veh, LOC101060439 /// RAP1B / RFU, RFX7 / Fold change vs veh, RFX7 / RFU, GTPBP10 / Fold change vs veh, GTPBP10 / RFU, CNEP1R1 / Fold change vs veh, CNEP1R1 / RFU, BIVM-ERCC5 /// ERCC5 / Fold change vs veh, BIVM-ERCC5 /// ERCC5 / RFU, ILF3 / Fold change vs veh, ILF3 / RFU 11762660_at / Fold change /veh 11762660_at / RFU VCAN (11757783_s_at) / Fold change /veh VCAN (11757783_s_at) / RFU DDX43 (11728927_at) / Fold change /veh DDX43 (11728927_at) / RFU KRT8 (11758188_x_at) / Fold change /veh KRT8 (11758188_x_at) / RFU NKD1 (11759106_at) / Fold change /veh NKD1 (11759106_at) / RFU SRD5A1 (11742802_a_at) / Fold change /veh SRD5A1 (11742802_a_at) / RFU TPSAB1 /// TPSB2 (11721975_s_at) / Fold change /veh TPSAB1 /// TPSB2 (11721975_s_at) / RFU GSTM3 (11746129_a_at) / Fold change /veh GSTM3 (11746129_a_at) / RFU IL23R (11737362_x_at) / Fold change /veh IL23R (11737362_x_at) / RFU TMEM51 (11727254_a_at) / Fold change /veh TMEM51 (11727254_a_at) / RFU PIWIL2 (11732686_x_at) / Fold change /veh PIWIL2 (11732686_x_at) / RFU ORM1 (11744905_x_at) / Fold change /veh ORM1 (11744905_x_at) / RFU CCDC152 (11743942_at) / Fold change /veh CCDC152 (11743942_at) / RFU ECM1 (11717891_a_at) / Fold change /veh ECM1 (11717891_a_at) / RFU IL23R (11748794_a_at) / Fold change /veh IL23R (11748794_a_at) / RFU TNFAIP8L3 (11732012_x_at) / Fold change /veh TNFAIP8L3 (11732012_x_at) / RFU MBOAT4 (11741988_at) / Fold change /veh MBOAT4 (11741988_at) / RFU 11764193_at / Fold change /veh 11764193_at / RFU TMEM53 (11763286_at) / Fold change /veh TMEM53 (11763286_at) / RFU MAGEB2 (11727129_at) / Fold change /veh MAGEB2 (11727129_at) / RFU TMEM200A (11744735_a_at) / Fold change /veh TMEM200A (11744735_a_at) / RFU CCDC152 (11751479_a_at) / Fold change /veh CCDC152 (11751479_a_at) / RFU FAM211A (11726209_a_at) / Fold change /veh FAM211A (11726209_a_at) / RFU RGS16 (11746705_a_at) / Fold change /veh RGS16 (11746705_a_at) / RFU VCAN (11755009_s_at) / Fold change /veh VCAN (11755009_s_at) / RFU RHOB (11743442_s_at) / Fold change /veh RHOB (11743442_s_at) / RFU RGS16 (11720943_a_at) / Fold change /veh RGS16 (11720943_a_at) / RFU RGS16 (11720944_at) / Fold change /veh RGS16 (11720944_at) / RFU, VPS4B / Fold change vs veh, VPS4B / RFU, CREB1 / Fold change vs veh, CREB1 / RFU, DNAJC13 / Fold change vs veh, DNAJC13 / RFU, GNAQ / Fold change vs veh, GNAQ / RFU, CDK5R1 / Fold change vs veh, CDK5R1 / RFU, ZRANB3 / Fold change vs veh, ZRANB3 / RFU, CUL4A / Fold change vs veh, CUL4A / RFU, CCNY / Fold change vs veh, CCNY / RFU, UFL1 / Fold change vs veh, UFL1 / RFU, COG3 / Fold change vs veh, COG3 / RFU, DIAPH2 / Fold change vs veh, DIAPH2 / RFU, SKA2 / Fold change vs veh, SKA2 / RFU, AFF3 / Fold change vs veh, AFF3 / RFU, LMF1 / Fold change vs veh, LMF1 / RFU, IPO11 / Fold change vs veh, IPO11 / RFU, DFFB / Fold change vs veh, DFFB / RFU, FOXP1 / Fold change vs veh, FOXP1 / RFU, CARD8 / Fold change vs veh, CARD8 / RFU, STRN3 / Fold change vs veh, STRN3 / RFU, ADK / Fold change vs veh, ADK / RFU, RASSF2 / Fold change vs veh, RASSF2 / RFU, WIPF1 / Fold change vs veh, WIPF1 / RFU, LARP1B / Fold change vs veh, LARP1B / RFU, RASA1 / Fold change vs veh, RASA1 / RFU, RB1 / Fold change vs veh, RB1 / RFU, PPFIA1 / Fold change vs veh, PPFIA1 / RFU, MAT2A / Fold change vs veh, MAT2A / RFU, CCT5 / Fold change vs veh, CCT5 / RFU, WDR92 / Fold change vs veh, WDR92 / RFU, CUX1 / Fold change vs veh, CUX1 / RFU, TTC7A / Fold change vs veh, TTC7A / RFU, TMEM135 / Fold change vs veh, TMEM135 / RFU, DEPTOR / Fold change vs veh, DEPTOR / RFU, CPM / Fold change vs veh, CPM / RFU, DNAJB6 / Fold change vs veh, DNAJB6 / RFU, CACNA2D3 / Fold change vs veh, CACNA2D3 / RFU, DTX4 / Fold change vs veh, DTX4 / RFU, TFCP2 / Fold change vs veh, TFCP2 / RFU, GMCL1 /// GMCL1P1 / Fold change vs veh, GMCL1 /// GMCL1P1 / RFU, AEBP2 / Fold change vs veh, AEBP2 / RFU, SNHG1 /// SNORD22 /// SNORD25 /// SNORD26 /// SNORD27 /// SNORD28 /// SNORD29 /// SNORD31 / Fold change vs veh, SNHG1 /// SNORD22 /// SNORD25 /// SNORD26 /// SNORD27 /// SNORD28 /// SNORD29 /// SNORD31 / Fold change (Aza/veh), C12orf56 (ProbeSet 11735607_a_at) / Fold change (ACY-1035/veh), C12orf56 (ProbeSet 11735607_a_at) / Fold change (Aza/veh), FGFR1OP (ProbeSet 11751329_s_at) / Fold change (ACY-1035/veh), FGFR1OP (ProbeSet 11751329_s_at) / Fold change (Aza/veh), VPS36 (ProbeSet 11739960_a_at) / Fold change (ACY-1035/veh), VPS36 (ProbeSet 11739960_a_at) / RFU SYPL1 (11715823_x_at) / Fold change /veh SYPL1 (11715823_x_at) / RFU IGFBP7 (11715501_s_at) / Fold change /veh IGFBP7 (11715501_s_at) / RFU REEP3 (11722064_at) / Fold change /veh REEP3 (11722064_at) / RFU IGLL1 (11728026_x_at) / Fold change /veh IGLL1 (11728026_x_at): dose or concentration left out as unconfirmed.

Each structure is given as a SMILES string.

As to `Nc1ncn([C@@H]2O[C@H](CO)[C@@H](O)[C@H]2O)c(=O)n1` [azacitidine], the “RFU, FUBP3” value turned out to be 470.91 RFU.

For the origin of these results see paper PMC5218480 (PLoS ONE, 2017).
